From patent US9671412B2, “Beclin 1 phosphorylation” (Board of Regents, The University of Texas System, priority 2012, dated 2017)
Entries after “also recorded” stand apart in the source; their conditions may differ.

What was measured:
GST-Akt1 = biological target: T1, GST-Akt1 (Homo sapiens, UniProt P31749); assay: In vitro phosphorylation of Beclin 1 S295 by GST-Akt1; assay type: biochemical; settings: in vitro kinase reaction
T1 construct: GST
Source text: (§1) We examined whether autophagy execution proteins could be targets of Akt. We focused on Beclin 1 because of its role in autophagy and tumor suppression (4).

[1] = test system: MCF7 human breast carcinoma cells; assay: Basal autophagy (GFP-LC3) in transfected MCF7 cells; assay type: cell-based; settings: lesser extent with Beclin 1 AA than with wild-type Beclin 1
Source text: We transfected MCF7 human breast carcinoma cells [which express low amounts of endogenous Beclin 1 (14)] with GFP-LC3 and wild-type Beclin 1 or Beclin 1 S295A or AA mutants. […] Thus, Akt inhibits basal autophagy both through Beclin 1 phosphorylation-dependent and independent mechanisms.

mTOR = assay: Phospho-4E-BP1 (mTOR phosphorylation target) in HeLa cells; assay type: cell-based; settings: including those expressing myr-Akt1
Source text: We investigated whether Akt inhibits autophagy by directly regulating the core autophagy machinery independently of mTOR. Expression of constitutively active myristoylated (5) and tagged Akt1 (Flag-tagged myr-Akt) in HeLa cells inhibited autophagy during growth in normal medium, in response to serum and amino acid starvation (a physiological inducer of autophagy), in response to treatment with an ATP-competitive inhibitor of mTOR, Torin1 (6), and in response to both starvation and Torin1 treatment. In all conditions, cells expressing myr-Akt1 had decreased numbers of puncta upon transfection with a fusion protein of green fluorescent protein with LC3 (GFP-LC3), a fluorescent marker of autophagosomes; increased amounts of p62 (a substrate that is degraded by autophagy); and increased amounts of the cytosolic non-lipidated form of LC3, LC3-I, and of total LC3 (7). Amounts of phospho-4E-BP1, a phosphorylation target of mTOR, were decreased in Torin1-treated cells, including those expressing myr-Akt1.

HeLa cells = assay: Autophagy induction in HeLa cells transfected with empty vector or WT EGFR; assay type: cell-based
Source text: We investigated the effects of active EGFR mutants that constitutively bind Beclin 1 on autophagy. […] In cells transfected with the active EGFR mutants, L858R or 4746-750, starvation and Torin1 induced lower levels of autophagy. […] Thus, active EGFR mutants suppress autophagy in a manner that is partially independent of mTOR.

[2] = test system: Beclin 1 S295 / S234 phosphorylation; assay: Phosphorylation of endogenous Beclin 1 S295 and S234 in HeLa cells expressing myr-Akt1; assay type: cell-based
Source text: as §1

H1975 cells = assay: Autophagy (GFP-LC3 puncta, LC3-II, p62) in H1975 NSCLC cells; assay type: cell-based, human
Source text: (§2) To evaluate whether EGFR activation inhibits autophagy, we used a human non-small cell lung carcinoma (NSCLC) cell line, A549, that express wild-type (WT) EGFR (VanMeter et al., 2008). We measured autophagy by examining the subcellular localization of a green fluorescent autophagy reporter protein, GFP-LC3, and by measuring levels of LC3-II, the autophagosome-associated lipidated form of LC3, and p62, an autophagic substrate (Mizushima et al., 2010).
We investigated whether this mechanism underlies EGFR regulation of autophagy in NSCLC cells with activating mutations in EGFR. We used two NSCLC lines: HCC827 cells have the Δ746-750 EGFR activating mutation and are TKI-sensitive, and H1975 cells have the L858R EGFR activating mutation and are TKI-resistant due to a T790M mutation. First, we evaluated if TKI treatment induces autophagy; […]. Thus, TKI therapy disrupts the EGFR/Beclin 1 complex and induces autophagy in TKI-sensitive but not TKI-resistant cells.

HCC827 xenografts = assay: HCC827 tumor xenografts under TKI therapy; assay type: in vivo; settings: control mice without induction or with induced WT Beclin 1
Source text: (§3) We investigated whether this mechanism underlies EGFR regulation of autophagy in NSCLC cells with activating mutations in EGFR. We used two NSCLC lines: HCC827 cells have the Δ746-750 EGFR activating mutation and are TKI-sensitive, and H1975 cells have the L858R EGFR activating mutation and are TKI-resistant due to a T790M mutation.

[3] = test system: EGFR L858R/T790M (H1975 cells); assay: EGFR signalling, Beclin 1 interactome and Beclin 1 tyrosine phosphorylation in H1975 cells; assay type: cell-based, human
Source text: as §3

[4] = test system: EGFR Δ746-750 (HCC827 cells)
Source text: as §3

HCC827 cells = assay: Autophagy (GFP-LC3 puncta, LC3-II, p62) in HCC827 NSCLC cells; assay type: cell-based, human
Source text: as §3

[5] = test system: myr-Akt1-expressing Rat2 cell tumors; assay: Tumors of myr-Akt1-expressing Rat2 cells in NOD SCID mice; assay type: in vivo; settings: co-expressed with myr-Akt1 in Rat2 cells
Source text: To examine the role of Akt-mediated Beclin 1 phosphorylation in Akt-driven tumorigenesis, we transduced Rat2 fibroblasts with myr-Akt1 (which transforms rat fibroblasts (15)) and either wild-type Beclin 1 or Beclin 1 phosphorylation site mutants. Myr-Akt1 suppressed autophagy in Rat2 fibroblasts, reduced co-immunoprecipitation of Class III PI3K Vps34 with Beclin 1, and decreased Beclin 1-associated lipid kinase activity. […] Expression of myr-Akt1 had minimal effects on the interaction of Beclin 1 AA and Vps34 or on the amounts of Beclin 1 AA-associated Vps34 activity. Thus, myr-Akt1 suppresses Beclin 1-associated Vps34 activity and autophagy in a manner that is partially reversed by a Beclin 1 mutant resistant to Akt-mediated phosphorylation.
All myr-Akt1-expressing Rat2 cells formed tumors in immunodeficient NOD SCID® mice, but tumor growth rate and tumor mass upon necropsy were less for cells expressing Beclin 1 AA than for cells expressing wild-type Beclin 1 or myr-Akt1 alone. Tumors expressing myr-Akt1 alone had numerous cells displaying p62 immunoreactivity (indicating autophagy suppression) whereas very few p62 immunoreactive cells were detected in tumors from cells expressing both myr-Akt1 and Beclin 1 AA. […] Tumors expressing active Akt alone or with Beclin 1 had higher mean mitotic counts (n=8.39; n=8.37, respectively) than tumors expressing myr-Akt1 and Beclin 1 AA (n=3.67) (P<0.0001). They also had increased Ki-67 labeling, and decreased TUNEL staining. Thus, the expression of a mutant of Beclin 1 that cannot be phosphorylated by Akt increases tumor cell autophagy, decreases tumor growth rate and size, decreases tumor cellular proliferation, and increases tumor cell death.

[6] = test system: A549 cells (wild-type EGFR); assay: Autophagy in serum-starved A549 cells; assay type: cell-based, human; settings: addition for 30 min
Source text: as §2

T1 sequence (P31749 whole entry): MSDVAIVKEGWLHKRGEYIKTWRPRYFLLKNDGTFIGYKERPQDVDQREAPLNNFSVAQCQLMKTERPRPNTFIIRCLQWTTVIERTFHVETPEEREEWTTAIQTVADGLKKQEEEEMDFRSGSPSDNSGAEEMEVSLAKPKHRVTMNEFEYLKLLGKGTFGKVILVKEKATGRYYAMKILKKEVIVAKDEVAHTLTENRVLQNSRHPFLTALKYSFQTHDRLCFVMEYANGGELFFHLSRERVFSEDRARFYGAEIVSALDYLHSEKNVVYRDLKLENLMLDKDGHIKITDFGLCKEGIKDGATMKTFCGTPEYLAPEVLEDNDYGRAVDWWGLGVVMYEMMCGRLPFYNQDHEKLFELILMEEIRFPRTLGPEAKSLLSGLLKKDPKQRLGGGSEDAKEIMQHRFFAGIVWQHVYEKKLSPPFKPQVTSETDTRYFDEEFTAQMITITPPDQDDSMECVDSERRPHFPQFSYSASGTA

Compound: CCN(CC)CCCCN1c2ccccc2Oc2ccc(Cl)cc21 [Akt inhibitor X]
- GST-Akt1 phosphorylation of Beclin 1 S295 in vitro (GST-Akt1): partially blocked

Compound: NC1(c2ccc(-c3nc4ccn5c(=O)[nH]nc5c4cc3-c3ccccc3)cc2)CCC1 [MK-2206]
- basal autophagy [1]: increased basal autophagy
- GST-Akt1 phosphorylation of Beclin 1 S295 in vitro (GST-Akt1): partially blocked

Compound: CCC(=O)N1CCN(c2ccc(-n3c(=O)ccc4cnc5ccc(-c6cnc7ccccc7c6)cc5c43)cc2C(F)(F)F)CC1 [Torin1]
- amounts of phospho-4E-BP1 (mTOR): decreased
- autophagy (HeLa cells): induced autophagy
- myr-Akt1-driven phosphorylation of endogenous Beclin 1 S295 and S234 [2]: not reversed

Compound: C#Cc1cccc(Nc2ncnc3cc(OCCOC)c(OCCOC)cc23)c1 [erlotinib]
- LC3-II conversion and p62 degradation (H1975 cells; H1975 cells): not
- GFP-LC3 puncta (H1975 cells; H1975 cells stably transfected with GFP-LC3): not
- time to complete regression of all tumor xenografts (HCC827 xenografts): ≤ 14 days
- Beclin 1/EGFR interaction [3]: not
- endogenous Beclin 1 Y233 phosphorylation ([3]; phosphospecific antibody): not
- Beclin 1/EGFR interaction [4]: blocked; also recorded: disruption of EGFR/Beclin 1 binding
- Beclin 1 tyrosine phosphorylation [4]: decreased
- EGFR phosphorylation [4]: EGFR dephosphorylation
- endogenous Beclin 1 Y233 phosphorylation ([4]; phosphospecific antibody): blocked
- LC3-II conversion and p62 degradation (HCC827 cells; HCC827 cells): demonstrated LC3-II conversion and p62 degradation
- GFP-LC3 puncta (HCC827 cells; HCC827 cells stably transfected with GFP-LC3): increased GFP-LC3 puncta in a dose-dependent manner

Compound: Beclin 1 AA: Beclin 1 double mutation S234A/S295A, cannot be phosphorylated by Akt; expressed in cells
- mean mitotic counts of tumors [5]: 3.67
- tumors displaying degenerative features with numerous pyknotic nuclei [5]: 60%

Compound: Beclin 1: wild-type human Beclin 1, essential autophagy and tumor suppressor protein; expressed in cells
- mean mitotic counts of tumors [5]: 8.37

Compound: epidermal growth factor [EGF, growth factor ligand that triggers EGFR signaling]
- autophagy induced by serum depletion [6]: partially reversed autophagy induction
